Experimental data taken from article PMC10648877, “Novel Substituted Azoloazines with Anticoagulant Activity” (International Journal of Molecular Sciences, 2023).
Values joined by “and” are separate entries in the source; they are usually repeats but may differ in a detail not shown here. Identical values can stand only once.

How the values were obtained:
LPS-treated PPP [1] = test: APTT, rabbit blood treated with LPS in vitro (hypercytokinemia); assay type: biochemical; details: 100 μM; for APTT: rabbit blood treated with LPS in vitro
Procedure: (§1) Hypercytokinemia conditions were modeled by incubation of whole blood with S. typhimurium LPS (Sigma Aldrich, St. Louis, MO, USA) at a final concentration of 20 ng/mL and subsequent preparation of PPP.

LPS-treated PPP [2] = test: Thrombin time, rabbit blood treated with LPS in vitro (hypercytokinemia); assay type: biochemical; details: for Δ % of Thrombin Time Prolongation Relative To Control + LPS: with LPS; for prolongation of thrombin time relative to LPS-treated blood control: LPS-treated rabbit blood in vitro
Procedure: as §1
(§2) The calculation of EC50 (effective concentration that prolongs the time of clot formation by 50%) was performed using linear regression analysis.

coagulograms of rats [3] = test: APTT after single intragastric administration, rats with hypercytokinemia (LPS); assay type: in vivo, rat; details: dabigatran etexilate 12 mg/kg; for prolongation of APTT in relation to the LPS control group: LPS-injected rats, 5d 5.5 mg/kg intragastric; for APTT: rats with hypercytokinemia (LPS 2 mg/kg i.v.), single intragastric dose, 2 h, 5d 5.5 mg/kg
Procedure: (§3) Distilled water was used as a solvent. In all experiments, control animals were injected with an equivalent volume of a vehicle. The reference drug dabigatran etexilate was administered to rats 2 h before the study at a 12 mg/kg dose (equivalent to the human dose, taking into account the interspecies conversion factor). Compound 5d was administered to rats 2 h before the study in a 5.5 mg/kg dose, equimolar to the dose of dabigatran etexilate.
(§4) To stabilize the blood, a 3.8% aqueous solution of sodium citrate (pH 6.0) was used in a ratio of 9:1. Coagulogram parameters of platelet-poor plasma were measured with a SOLAR coagulometer according to the methods described above.
(§5) Hypercytokinemia conditions were modeled by an intravenous injection of S. typhimurium LPS (Sigma Aldrich, St. Louis, MO, USA) at a final dose of 2 mg/kg into the tail vein of the rats 2 h before the administration of the substances. The evaluation of anticoagulant activity was conducted according to the methods described above.

[4] = system: platelet-poor plasma (PPP); test: Ecarin clotting time in vitro; assay type: biochemical; details: for EC50: concentration range 100 to 1 μM
Procedure: The ecarin clotting time was designed for the determination of antithrombin anticoagulant activity in platelet-poor plasma. Venous blood was collected into a 15 mL Falcon type plastic tube with 3.8% sodium citrate solution (0.5 mL of sodium citrate per 5 mL of blood), centrifuged on a CM-6M centrifuge (Elmi, Riga, Latvia) at room temperature from 18 to 25 °C for 15 min at 3000 rpm (1200× g). The obtained plasma was withdrawn using an automatic pipette and transferred to a separate clean, dry plastic tube. After that, the obtained plasma was recentrifuged under the same conditions and the upper third of the plasma was taken for analysis.
The ecarin stock solution (STA-ECT, Stago, Düsseldorf, Germany) was prepared according to the manufacturer’s instructions and diluted to 4 units/mL with HEPES-buffered saline (0.2 M) containing 0.025 M calcium chloride.
The tested samples were investigated in the concentration range from 100 to 1 μM for IC50 determination.
Prepared reagents and platelet-poor plasma were heated to 37 °C. The assay was performed on a Solar CGL2120 coagulometer (Belarus), adding 50 µL of the reagent ecarin to 100 µL of PPP and recording the clotting time.
as §2

[5] = system: platelet-poor plasma (PPP); test: Activated partial thromboplastin time (APTT), rabbit blood coagulogram in vitro; assay type: biochemical; details: 100 μM; for APTT: M ± m, n = 6;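 on all read-outs here: clotting time read chronometrically on a hemocoagulometer with commercial reagent kits, one of several coagulogram parameters alongside thrombin and prothrombin time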
Procedure: Test compounds and the reference drug were evaluated at a concentration of 100 μM. Effect on rabbit blood coagulograms in vitro was determined chronometrically with a SOLAR hemocoagulometer (Minsk, Belarus) using commercial kits (Technology-Standard, Barnaul, Russia) as per the manufacturer’s instructions. The following parameters were determined: activated partial thromboplastin time, thrombin time, and prothrombin time.

[6] = system: platelet-poor plasma (PPP); test: Thrombin time (TT), rabbit blood coagulogram in vitro; assay type: biochemical; details: for Δ% of Thrombin Time Prolongation Relative to Control / EC50: without LPS; for TT: M ± m, n = 6; for EC50: concentration that prolongs clot formation time by 50%, read-out: EC50, μM (thrombin time prolongation)
coagulograms of rats [7] = test: APTT after single intragastric administration, rats without hypercytokinemia; assay type: in vivo, rat; details: dabigatran etexilate 12 mg/kg; for prolongation of APTT compared to the control: intact rats, 2 h after intragastric administration, 5d 5.5 mg/kg; for APTT: rats without hypercytokinemia, single intragastric dose, 2 h, 5d 5.5 mg/kg (equimolar)
Procedure: as §3, §4

coagulograms of rats [8] = test: Prothrombin time after single intragastric administration, rats without hypercytokinemia; assay type: in vivo, rat; details: for PT: single intragastric dose, 2 h, dabigatran etexilate 12 mg/kg, 5d 5.5 mg/kg (equimolar)
Procedure: as §3, with “factor).” for “factor). Compound 5d was administered to rats 2 h before the study in a 5.5 mg/kg dose, equimolar to the dose of dabigatran etexilate.”
(§6) Coagulogram parameters of platelet-poor plasma were measured with a SOLAR coagulometer according to the methods described above.

[9] = system: platelet-poor plasma (PPP); test: Prothrombin time (PT), rabbit blood coagulogram in vitro; details: 100 μM; for PT: M ± m, n = 6;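 on all read-outs here: clotting time read chronometrically on a hemocoagulometer using commercial reagent kits, with dabigatran etexilate at the same concentration as reference anticoagulant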
Procedure: The study was performed on platelet-poor plasma (PPP) stabilized with a 3.8% sodium citrate solution in a ratio of 9:1 according to the method described in [34]. Dabigatran etexilate (Boehringer Ingelheim Pharma GmbH and Co., Ingelheim am Rhein, Germany) was used as the reference drug. Test compounds and the reference drug were evaluated at a concentration of 100 μM. Effect on rabbit blood coagulograms in vitro was determined chronometrically with a SOLAR hemocoagulometer (Minsk, Belarus) using commercial kits (Technology-Standard, Barnaul, Russia) as per the manufacturer’s instructions. The following parameters were determined: activated partial thromboplastin time, thrombin time, and prothrombin time.

coagulograms of rats [10] = test: Thrombin time after single intragastric administration, rats with hypercytokinemia (LPS); assay type: in vivo, rat; details: for increase of thrombin time in relation to the LPS control group: LPS-injected rats, 5d 5.5 mg/kg intragastric; for antithrombin effect under systemic inflammation reaction versus its absence: rats, single intragastric administration
Procedure: as §3, §4, §5

coagulograms of rats [11] = test: Prothrombin time after single intragastric administration, rats with hypercytokinemia (LPS); assay type: in vivo, rat; details: for PT: rats with hypercytokinemia (LPS 2 mg/kg i.v.), single intragastric dose, 2 h, dabigatran etexilate 12 mg/kg, 5d 5.5 mg/kg; for effect on prothrombin time: rats with systemic inflammatory reaction (LPS)
Procedure: as §3, with “factor).” for “factor). Compound 5d was administered to rats 2 h before the study in a 5.5 mg/kg dose, equimolar to the dose of dabigatran etexilate.”
as §6, §5

LPS-treated PPP [12] = test: Prothrombin time, rabbit blood treated with LPS in vitro (hypercytokinemia); assay type: biochemical; details: 100 μM
Procedure: as §1

coagulograms of rats [13] = test: Thrombin time after single intragastric administration, rats without hypercytokinemia; assay type: in vivo, rat; details: dabigatran etexilate 12 mg/kg; for increase of thrombin time relative to intact control: intact rats, 2 h after intragastric administration, 5d 5.5 mg/kg; for TT: rats without hypercytokinemia, single intragastric dose, 2 h, 5d 5.5 mg/kg (equimolar)
Procedure: as §3, §4

[14] = rats with hypercytokinemia (LPS 2 mg/kg i.v.), single intragastric dose, 2 h, dabigatran etexilate 12 mg/kg, 5d 5.5 mg/kg

With `CCCCCCOC(=O)N=C(N)c1ccc(NCc2nc3cc(C(=O)N(CCC(=O)OCC)c4ccccn4)ccc3n2C)cc1` [Dabigatran etexilate, reference compound] the “prolongation of APTT relative to LPS-treated blood” value (LPS-treated PPP [1]; LPS-treated rabbit blood in vitro) was 2.3 times, the “APTT” value (LPS-treated PPP [1]) was 135.13 ± 15.17 s and the “Δ % of Thrombin Time Prolongation Relative To Control + LPS” value (LPS-treated PPP [2]; 1 μM) was 51.7% and 51.7 ± 0.5%. The “Δ % of Thrombin Time Prolongation Relative To Control + LPS” value (LPS-treated PPP [2]; 5 μM) was 208.6%, the “Δ % of Thrombin Time Prolongation Relative To Control + LPS” value (LPS-treated PPP [2]; 10 μM) was 292.0% and the “prolongation of thrombin time relative to LPS-treated blood control” value (LPS-treated PPP [2]; 100 μM) was 14.0 times. The “TT” value (LPS-treated PPP [2]; rabbit blood treated with LPS in vitro, 100 μM) was 125.45 ± 1.54 s, the “prolongation of APTT in relation to the LPS control group” value (coagulograms of rats [3]) was 2.2 times and the “APTT” value (coagulograms of rats [3]) was 41.0 ± 2.0 s. For the same molecule, the ecarin clotting time ([4]; 1 μM) was 41.6 s, the ecarin clotting time ([4]; 10 μM) was 54.1 s and the “lengthening of ecarin clotting time compared to control” value ([4]; 100 μM) was 2.3 fold. For the same molecule, the EC50 [4] was 10.5 µM, the “increase of APTT relative to the control” value [5] was 1.6 times and the “APTT” value [5] was 75.26 ± 2.61 s. For the same molecule, the “Δ% of Thrombin Time Prolongation Relative to Control” value ([6]; 0.1 μM) was 1.4 ± 0.4 %, the “Δ% of Thrombin Time Prolongation Relative to Control” value ([6]; 1 μM) was 42.3 ± 5.6 % and the “Δ% of Thrombin Time Prolongation Relative to Control” value ([6]; 1 μM, listed as dabigatran etexilate) was 42.3%. The “Δ% of Thrombin Time Prolongation Relative to Control” value ([6]; 5 μM) was 176.1 ± 15.3 %, the “Δ% of Thrombin Time Prolongation Relative to Control” value ([6]; 5 μM, listed as dabigatran etexilate) was 176.1% and the thrombin time ([6]; 10 μM, intact PPP) was 46.8 s. The “Δ% of Thrombin Time Prolongation Relative to Control” value ([6]; 10 μM) was 302.0 ± 34.4 %, the “Δ% of Thrombin Time Prolongation Relative to Control” value ([6]; 10 μM, listed as dabigatran etexilate) was 302.0% and the “increase of thrombin time relative to the control” value ([6]; rabbit blood in vitro, 100 μM) was 6.0 times. For the same molecule, the “TT” value ([6]; rabbit blood in vitro, 100 μM) was 70.23 ± 3.15 s, the EC50 [6] was 1.4 µM and the “prolongation of APTT compared to the control” value (coagulograms of rats [7]) was 3.6 times. The “APTT” value (coagulograms of rats [7]) was 137.5 ± 2.2 s, the “effect on prothrombin time” value (coagulograms of rats [8]) was “did not change” and the “PT” value (coagulograms of rats [8]) was 31.2 ± 1.3 s. The “effect on prothrombin time” value [9] was “without changing the prothrombin time”, the “PT” value [9] was 14.20 ± 0.38 s and the “increase of thrombin time in relation to the LPS control group” value (coagulograms of rats [10]; dabigatran etexilate 12 mg/kg) was 12.8 times. For the same molecule, the “TT” value (coagulograms of rats [10]; [14]) was 566.1 ± 11.5 s, the “antithrombin effect under systemic inflammation reaction versus its absence” value (coagulograms of rats [10]) was “did not change” and the “PT” value (coagulograms of rats [11]) was 28.1 ± 1.0 s. The “effect on prothrombin time” value (coagulograms of rats [11]) was “neither the test compound nor dabigatran etexilate had an effect”, the “PT” value (LPS-treated PPP [12]) was 15.73 ± 0.20 s and the “increase of thrombin time relative to intact control” value (coagulograms of rats [13]) was 10.5 times. For the same molecule, the “TT” value (coagulograms of rats [13]) was 603.9 ± 14.2 s.
In the case of `C1=C(c2cccs2)n2ncnc2NC1c1cccs1` (stereo not drawn) [Compound 5d, 7,5-Di(2-thienyl)-4,5-dihydro-[1,2,4]triazolo[1,5-a]pyrimidine], the “APTT” value (LPS-treated PPP [1]) is reported as 61.78 ± 4.58 s, the “Δ % of Thrombin Time Prolongation Relative To Control + LPS” value (LPS-treated PPP [2]; 1 μM) is reported as 56.3% and 56.3 ± 1.1 % and the “Δ % of Thrombin Time Prolongation Relative To Control + LPS” value (LPS-treated PPP [2]; 5 μM) is reported as 234.1% and 234.1 ± 4.2 ^#$ %. The “Δ % of Thrombin Time Prolongation Relative To Control + LPS” value (LPS-treated PPP [2]; 10 μM) was 354.1% and 354.1 ± 6.5 ^#$ %, the “prolongation of thrombin time relative to LPS-treated blood control” value (LPS-treated PPP [2]; 100 μM) was 17.0 times and the “prolongation of APTT in relation to the LPS control group” value (coagulograms of rats [3]) was 1.6 times. The “APTT” value (coagulograms of rats [3]) was 28.7 ± 1.0 s, the ecarin clotting time ([4]; 1 μM) was 40.2 s and the ecarin clotting time ([4]; 10 μM) was 50.5 s. For the same molecule, the ecarin clotting time ([4]; 100 μM) was 81.3 s, the EC50 [4] was 17.9 µM and the “increase of APTT relative to the control” value [5] was 1.3 times. For the same molecule, the “APTT” value [5] was 61.78 ± 4.58 s, the “Δ% of Thrombin Time Prolongation Relative to Control” value ([6]; 1 μM) was 46.5% and 46.5 ± 6.7 % and the “Δ% of Thrombin Time Prolongation Relative to Control” value ([6]; 5 μM) was 194.1% and 194.1 ± 10.0 %. The “Δ% of Thrombin Time Prolongation Relative to Control” value ([6]; 10 μM) was 467.1% and 467.1 ± 14.4 %, the “TT” value ([6]; rabbit blood in vitro, 100 μM) was 154.43 ± 11.14 s and the “prolongation of thrombin time exceeding dabigatran etexilate” value ([6]; rabbit blood in vitro, 100 μM, versus reference drug) was 2.2 times. For the same molecule, the EC50 [6] was 1.25 µM and 1.3 µM, the “prolongation of APTT compared to the control” value (coagulograms of rats [7]) was 1.5 times and the “APTT” value (coagulograms of rats [7]) was 59.2 ± 8.3 s. For the same molecule, the “PT” value (coagulograms of rats [8]) was 24.5 ± 1.1 s, the “effect on prothrombin time” value [9] was “did not affect the prothrombin time” and the “PT” value [9] was 14.08 ± 0.4 s. For the same molecule, the “increase of thrombin time in relation to the LPS control group” value (coagulograms of rats [10]; dabigatran etexilate 12 mg/kg) was 14.5 times, the “TT, s” value (coagulograms of rats [10]; [14]) was 640.3 ± 7.4 ^#$ s and the “antithrombin effect under systemic inflammation reaction versus its absence” value (coagulograms of rats [10]) was “twice as pronounced”. The “PT” value (coagulograms of rats [11]) was 26.4 ± 1.4 s, the “effect on prothrombin time” value (coagulograms of rats [11]) was “neither the test compound nor dabigatran etexilate had an effect” and the “PT” value (LPS-treated PPP [12]) was 14.08 ± 0.4 s. The “increase of thrombin time relative to intact control” value (coagulograms of rats [13]) was 5.6 times and the “TT” value (coagulograms of rats [13]) was 325.3 ± 5.1 s.
